Values of other authors in patent US20260207657A1, “ANTISEPTIC COMPOSITIONS AND METHODS” (Solventum Intellectual Properties Company, priority 2022, published 2026).

Details: 25° C.

II [molecular iodine]
Solubility in water: 0.03 wt-%
